As a reminder, the chromatographic logP is a lipophilicity value derived from retention on a column.

Consider 41 compounds from patent EP2033515A1, “Method for improved utilisation of the production potential of transgenic plants” (Bayer CropScience AG, priority 2007, dated 2009).

The nature of this series: logP determination by reversed-phase HPLC (EEC Directive 79/831 Annex V.A8). An excerpt:
Die Messung der logP Werte erfolgte gemäß EEC Directive 79/831 Annex V.A8 durch HPLC (High Performance Liquid Chromatography) an reverser Phase Säulen (C 18), mit nachfolgenden Methoden: • ^[a] Die Bestimmung erfolgt bei pH 2.3 mit 0,1% wässriger Phosphorsäure und Acetonitril als Eluenten (linearer Gradient von 10 bis 95% Acetonitril). • ^[b] Die Bestimmung erfolgt mit LC-MS bei pH 2,7 mit 0,1 % wässriger Ameisensäure und Acetonitril als Eluenten (linearer Gradient von 10% bis 95% Acetonitril). • ^[c] Die Bestimmung erfolgt mit LC-MS bei pH 7,8 mit 0,001 M wässriger Ammoniumhydrogencarbonat-Lösung und Acetonitril als Eluenten (linearer Gradient von 10 % bis 95 % Acetonitril).
Die Eichung erfolgt mit unverzweigten Alkan-2-onen (mit 3 bis 16 Kohlenstoffatomen), deren logP-Werte bekannt sind (Bestimmung der logP-Werte anhand der Retentionszeiten durch lineare Interpolation zwischen zwei aufeinander folgenden Alkanonen). Die lambda-maX-Werte wurden an Hand der UV-Spektren von 200 bis 400 nm in den Absorptionsmaxima ermittelt.

Setting [1] is: aqueous ammonium hydrogen carbonate/acetonitrile, pH 7.8.
[2] abbreviates: method [a]: pH 2.3, 0,1% aqueous phosphoric acid and acetonitrile, linear gradient 10 to 95% acetonitrile.
[3] abbreviates: 0.1% aqueous phosphoric acid/acetonitrile, pH 2.3.
[4] abbreviates: method [c]: LC-MS, pH 7,8, 0,001 M aqueous ammonium hydrogen carbonate and acetonitrile, linear gradient 10 % to 95 % acetonitrile.

Structures are written as SMILES.

Under setting [1], `Cc1cc(C(F)(C(F)(F)F)C(F)(F)F)ccc1NC(=O)c1cccc(I)c1C(=O)N[C@@H](C)CS(C)(=O)=O` [compound 1] gave a chromatographic logP of 3.2. Also, under setting [2], the log p is 3,18.
Take `Cc1c(NC(=O)c2cccc(I)c2C(=O)N[C@@H](C)C[S+](C)[O-])ccc(C(F)(C(F)(F)F)C(F)(F)F)c1F` (stereo partly shown) [compound 8]: under setting [2], the log p was 2,78^[a].
Take `CC[S+]([O-])C[C@H](C)NC(=O)c1c(I)cccc1C(=O)Nc1ccc(C(F)(C(F)(F)F)C(F)(F)F)c(F)c1C` (stereo partly shown) [compound 9]: the log p under setting [2] was 2,97^[a].
With `CSC[C@H](C)NC(=O)c1c(Cl)cccc1C(=O)Nc1ccc(C(F)(F)C(F)(F)F)c(F)c1C` [compound 11], where the note is “method [b]: LC-MS, pH 2,7, 0,1 % aqueous formic acid and acetonitrile, linear gradient 10% to 95% acetonitrile”, the log p was 3,94^[b].
Regarding `CCS(=O)(=O)C[C@H](C)NC(=O)c1c(Cl)cccc1C(=O)Nc1ccc(C(F)(F)C(F)(F)F)c(Cl)c1C` [compound 12], the log p under setting [2] was 3,14^[a].
The same measure, in the same setting: to `Cc1c(NC(=O)c2cccc(Cl)c2C(=O)N[C@@H](C)CS(C)(=O)=O)ccc(C(F)(F)C(F)(F)F)c1F` [compound 13] belongs 2,82^[a].
The same measure, in the same setting: to `CCS(=O)(=O)C[C@H](C)NC(=O)c1c(Cl)cccc1C(=O)Nc1ccc(C(F)(F)C(F)(F)F)c(F)c1C` [compound 14] belongs 3,01^[a].
The same measure, in the same setting: to `CSC[C@H](C)NC(=O)c1c(Br)cccc1C(=O)Nc1ccc(C(F)(F)C(F)(F)F)c(F)c1C` [compound 15] belongs 3,93^[a]; to `Cc1c(NC(=O)c2cccc(Br)c2C(=O)N[C@@H](C)CS(C)(=O)=O)ccc(C(F)(F)C(F)(F)F)c1F` [compound 16], 2,86^[a].
Consider `CSC[C@H](C)NC(=O)c1c(Br)cccc1C(=O)Nc1ccc(C(F)(C(F)(F)F)C(F)(F)F)c(F)c1C` [compound 17], for which the log p under setting [2] is 4,31^[a].
`CCSC[C@H](C)NC(=O)c1c(I)cccc1C(=O)Nc1ccc(C(F)(C(F)(F)F)C(F)(F)F)c(F)c1C` [compound 19]: under setting [2], the log p was 4,71^[a].
Consider `CCS(=O)(=O)C[C@H](C)NC(=O)c1c(I)cccc1C(=O)Nc1ccc(C(F)(C(F)(F)F)C(F)(F)F)c(F)c1C` [compound 21], for which the log p under setting [2] was 3,47^[a].
Same read-out and setting: to `CCS(=O)(=O)C[C@H](C)NC(=O)c1c(Br)cccc1C(=O)Nc1ccc(C(F)(F)C(F)(F)F)c(Cl)c1C` [compound 22] belongs 3,19^[a]; to `CSC[C@H](C)NC(=O)c1c(I)cccc1C(=O)Nc1ccc(C(F)(F)C(F)(F)F)c(F)c1C` [compound 23], 4,04^[a].
Still for that read-out and setting: to `Cc1c(NC(=O)c2cccc(I)c2C(=O)N[C@@H](C)CS(C)(=O)=O)ccc(C(F)(F)C(F)(F)F)c1F` [compound 24] belongs 2,97^[a].
For the compound `CSC[C@H](C)NC(=O)c1c(I)cccc1C(=O)Nc1ccc(C(F)(C(F)(F)F)C(F)(F)F)c(F)c1C` [compound 25], under setting [2], the log p was 4,41^[a].
`CSC[C@H](C)NC(=O)c1c(I)cccc1C(=O)Nc1ccc(C(F)(F)C(F)(F)F)c(Cl)c1C` [compound 26]: the log p under setting [2] is 4,2^[a].
Same read-out and setting: under `Cc1c(NC(=O)c2cccc(I)c2C(=O)N[C@@H](C)CS(C)(=O)=O)ccc(C(F)(C(F)(F)F)C(F)(F)F)c1F` [compound 27] stands 3,27^[a]; under `CSC[C@H](C)NC(=O)c1c(Br)cccc1C(=O)Nc1ccc(C(F)(C(F)F)C(F)(F)F)cc1Br` (stereo partly shown) [compound 29], 3,81^[a].
Regarding `CCS(=O)(=O)C[C@H](C)NC(=O)c1c(Br)cccc1C(=O)Nc1ccc(C(F)(C(F)F)C(F)(F)F)cc1Br` (stereo partly shown) [compound 30], the chromatographic logP under setting [3] was 3.06.
For `Cc1c(NC(=O)c2cccc(I)c2C(=O)N[C@@H](C)C[S+](C)[O-])ccc(C(F)(F)C(F)(F)F)c1F` (stereo partly shown) [compound 31], the log p under setting [2] is 2,5^[a].
The same measure, in the same setting: to `CCSC[C@H](C)NC(=O)c1c(I)cccc1C(=O)Nc1ccc(C(F)(C(F)(F)F)C(F)(F)Br)cc1C` (stereo partly shown) [compound 32] belongs 4,68.
With `CCSC[C@H](C)NC(=O)c1c(I)cccc1C(=O)Nc1ccc(C(F)(C(F)F)C(F)(F)F)cc1C` (stereo partly shown) [compound 33], the log p was 3,96^[a] 3,96^[c] under setting [2] and 3,96^[a] 3,96^[c] under setting [4].
As to `CCSC[C@H](C)NC(=O)c1c(I)cccc1C(=O)Nc1ccc(C(F)(C(F)F)C(F)(F)F)cc1Cl` (stereo partly shown) [compound 34], the chromatographic logP runs as follows: under setting [3], 4.2; under setting [1], 4.2.
Turning to `CCSC[C@H](C)NC(=O)c1c(I)cccc1C(=O)Nc1ccc(C(C(F)F)C(F)(F)F)cc1C` (stereo partly shown) [compound 35], the log p was 3,63 under setting [2] and 3,62 under setting [4].
Take `CSC[C@H](C)NC(=O)c1c(I)cccc1C(=O)Nc1ccc(C(C(F)F)C(F)(F)F)cc1Br` (stereo partly shown) [compound 37]: the log p by setting is: under setting [2], 3,51; under setting [4], 3,54.
Regarding `CCSC[C@H](C)NC(=O)c1c(I)cccc1C(=O)Nc1ccc(C(C(F)F)C(F)(F)F)cc1Cl` (stereo partly shown) [compound 38], the log p under setting [2] is given as 3,76 and the log p under setting [4] is 3,79.
In the case of `CCSC[C@H](C)NC(=O)c1c(I)cccc1C(=O)Nc1ccc(C(C(F)F)C(F)(F)F)cc1Br` (stereo partly shown) [compound 39], the chromatographic logP under setting [1] is 3.8. Further, the log p under setting [2] was 3,78.
Turning to `CCSC[C@H](C)NC(=O)c1c(I)cccc1C(=O)Nc1ccc(C(C(F)F)C(F)(F)F)cc1F` (stereo partly shown) [compound 40], the log p by setting is: under setting [2], 3,57^[a] 3,57^[c]; under setting [4], 3,57^[a] 3,57^[c].
Regarding `CCS(=O)(=O)C[C@H](C)NC(=O)c1c(I)cccc1C(=O)Nc1ccc(C(F)(C(F)F)C(F)(F)F)cc1Cl` (stereo partly shown) [compound 41], the log p was 3,12 under setting [2] and 3,18 under setting [4].
In the same order, the values of `C[C@@H](CS(C)(=O)=O)NC(=O)c1c(I)cccc1C(=O)Nc1ccc(C(C(F)F)C(F)(F)F)cc1Cl` (stereo partly shown) [compound 42] are 2,69 and 2,72.
Turning to `C[C@@H](CS(C)(=O)=O)NC(=O)c1c(I)cccc1C(=O)Nc1ccc(C(C(F)F)C(F)(F)F)cc1Br` (stereo partly shown) [compound 43], the log p is, setting by setting: under setting [2], 2,71; under setting [4], 2,76.
In the same order, the values of `C[C@@H](CS(C)(=O)=O)NC(=O)c1c(I)cccc1C(=O)Nc1ccc(C(F)(C(F)F)C(F)(F)F)cc1F` (stereo partly shown) [compound 44] are 2,72 and 2,76.
On to `C[C@@H](CS(C)(=O)=O)NC(=O)c1c(I)cccc1C(=O)Nc1ccc(C(C(F)F)C(F)(F)F)cc1F` (stereo partly shown) [compound 45], for which the log p under setting [4] was 2,54. The chromatographic logP (pH 2.3) was 2.5.
Turning to `CCS(=O)(=O)C[C@H](C)NC(=O)c1c(I)cccc1C(=O)Nc1ccc(C(C(F)F)C(F)(F)F)cc1Br` (stereo partly shown) [compound 46], the log p under setting [2] is 2,87 and the log p under setting [4] was 2,92.
In the same order, the values of `CCS(=O)(=O)C[C@H](C)NC(=O)c1c(I)cccc1C(=O)Nc1ccc(C(F)(C(F)F)C(F)(F)F)cc1F` (stereo partly shown) [compound 47] are 2,89 and 2,94.
On the same counts, the results for `CCS(=O)(=O)C[C@H](C)NC(=O)c1c(I)cccc1C(=O)Nc1ccc(C(C(F)F)C(F)(F)F)cc1F` (stereo partly shown) [compound 48] are 2,65 and 2,69.
In the same order, the values of `Cc1cc(C(F)(C(F)F)C(F)(F)F)ccc1NC(=O)c1cccc(Cl)c1C(=O)N[C@@H](C)CS(C)(=O)=O` (stereo partly shown) [compound 49] are 2,61 and 2,64.
Take `Cc1c(NC(=O)c2cccc(Cl)c2C(=O)N[C@@H](C)C[S+](C)[O-])ccc(C(C(F)(F)F)C(F)(F)F)c1F` (stereo partly shown) [compound 51]: the log p under setting [4] is reported as 2,41. For the same compound, the chromatographic logP (pH 2.3) was determined as 2.5.
Regarding `Cc1cc(C(C(F)(F)F)C(F)(F)F)c(F)cc1NC(=O)c1cccc(Cl)c1C(=O)N[C@@H](C)C[S+](C)[O-]` (stereo partly shown) [compound 52], the log p reads like this: under setting [2], 2,58; under setting [4], 2,51.
In the same order, the values of `Cc1cc(C(C(F)(F)F)C(F)(F)F)c(F)cc1NC(=O)c1cccc(Br)c1C(=O)N[C@@H](C)C[S+](C)[O-]` (stereo partly shown) [compound 53] are 2,58 and 2,51.
